Laboratory results from patent US20040077687A1, “Thiazolmines and their use as tgf-beta inhibitors” (priority 2003, published 2004).

How the values were obtained:
[1] = test system: TGF-β signalling (PAI-1 promoter luciferase reporter in HepG2 cells); assay: Assay 1: PAI-1 promoter firefly luciferase reporter in HepG2 cells exposed to TGF-β; conditions: for IC50: Homo sapiens, HepG2, read-out: IC50 value in Assay 1
Experimental: The assay was performed in HepG2 cells stably transfected with the PAI-1 promoter (known to be a strong TGF-β responsive promoter) linked to a luciferase (firefly) reporter gene. The compounds were selected on their ability to inhibit luciferase activity in cells exposed to TGF-β. In addition cells were transfected with a second luciferase (Renilla) gene which was not driven by a TGF-β responsive promoter and was used as a toxicity control.
(96 well-)microplates are seeded, using a multidrop apparatus, with the stably transfected cell line at a concentration of 35000 cells per well in 200 μl of serum-containing medium. These plates are placed in a cell incubator.
18 to 24 hours later (Day 2), cell-incubation procedure is launched. Cells are incubated with TGF-β and a candidate compound (TGF-β inhibitor) at concentrations in the range 50 nM to 10 μM (final concentration of DMSO 1%). The final concentration of TGF-β (rhTGFβ1) used in the test is 1 ng/mL. […] The final volume of the test reaction is 150 μl. Each well contains only one candidate compound and its effect on the PAI-1 promoter is monitored.
Columns 11 and 12 are employed as controls. Column 11 contains 8 wells in which the cells are incubated in the presence of TGF-β, without a candidate compound. Column 11 is used to determine the ‘reference TGF-β induced firefly luciferase value’ against which values measured in the test wells (to quantify inhibitory activity) may be compared. In wells A12 to D12, cells are grown in medium without TGF-β. The firefly luciferase values obtained from these positions are representive of the ‘basal firefly luciferase activity’. In wells E12 to H12, cells are incubated in the presence of TGF-β and 500 μM CPO (Cyclopentenone, Sigma), a cell toxic compound.
12 to 18 hours later (day 3), the luciferase quantification procedure is launched. The following reactions are performed using reagents obtained from a Dual Luciferase Assay Kit (Promega). Cells are washed and lysed with the addition of 10 μl of passive lysis buffer (Promega). Following agitation (15 to 30 mins), luciferase activities of the plates are read in a dual-injector luminometer (BMG lumistar). For this purpose, 50 μl of luciferase assay reagent and 50 μl of ‘Stop & Glo’ buffer are injected sequentially to quantify the activities of both luciferases. The mean Luciferase activity value obtained in wells A11 to H11 (Column 11, TGF-βonly) is considered to represent 100% and values obtained in wells A12 to D12 (cells in medium alone) give a basal level (0%). For each of the compounds tested, a concentration response curve is constructed from which an IC50 value can be determined graphically.

SMILES	melting point [°C]	IC50 [1] [µM]	firefly and renilla luciferase activities relative to column 11 (TGF-β only); toxicity control ([1]; 500 μM CPO in the presence of TGF-β, HepG2 reporter cells)
O=C1C=CCC1 [CPO, Cyclopentenone, reference compound]	–	–	around 50%
Nc1nc(-c2ccccn2)c(-c2ccnc(-c3ccc(Cl)cc3)c2)s1 [Example 1, 5-[2-(4-Chlorophenyl)pyridin-4-yl]-4-pyridin-2-yl-1,3-thiazol-2-amine]	256 to 257	≤ 5	–
COc1ccc(-c2cc(-c3sc(N)nc3-c3ccccn3)ccn2)cc1 [Example 2, 5-[2-(4-Methoxyphenyl)pyridin-4-yl]-4-pyridin-2-yl-1,3-thiazol-2-amine]	222	≤ 5	–

Further lines, with some results ahead:

melting point [°C]	IC50 [1] [µM]	SMILES	firefly and renilla luciferase activities relative to column 11 (TGF-β only); toxicity control ([1]; 500 μM CPO in the presence of TGF-β, HepG2 reporter cells)
250	≤ 5	Nc1nc(-c2ccccn2)c(-c2ccnc(-c3ccc(F)cc3)c2)s1 [Example 3, 5-[2-(4-Fluorophenyl)pyridin-4-yl]-4-pyridin-2-yl-1,3-thiazol-2-amine]	–
238	≤ 5	CCc1ccc(-c2cc(-c3sc(N)nc3-c3ccccn3)ccn2)cc1 [Example 4, 5-[2-(4-Ethylphenyl)pyridin-4-yl]-4-pyridin-2-yl-1,3-thiazol-2-amine]	–
246	≤ 5	CCOc1ccc(-c2cc(-c3sc(N)nc3-c3ccccn3)ccn2)cc1 [Example 5, 5-[2-(4-Ethoxyphenyl)pyridin-4-yl]-4-pyridin-2-yl-1,3-thiazol-2-amine]	–
244	≤ 5	Nc1nc(-c2ccccn2)c(-c2ccnc(-c3ccsc3)c2)s1 [Example 6, 5-[2-(Thiophen-3-yl)pyridin-4-yl]-4-pyridin-2-yl-1,3-thiazol-2-amine]	–
